The values below are quoted from earlier work in article PMC7961821, “Comparing Ligninolytic Capabilities of Bacterial and Fungal Dye-Decolorizing Peroxidases and Class-II Peroxidase-Catalases” (International Journal of Molecular Sciences, 2021).

One data set deals with T1, PerVPL (Pleurotus eryngii, UniProt O94753).
T1 construct: gene vpl2; heme enzyme
The data set is described as follows: steady-state kinetics, absorbance loss at […] nm. In kind it is biochemical. The following applies: read-out: RB19; 1 mM H2O2, optimal pH (not given for RB19), 25 °C.

Another data set deals with T2, PchLiPA (Phanerodontia chrysosporium, UniProt P06181).
T2 construct: gene LPOA; heme enzyme
T2 sequence (P06181 29-372): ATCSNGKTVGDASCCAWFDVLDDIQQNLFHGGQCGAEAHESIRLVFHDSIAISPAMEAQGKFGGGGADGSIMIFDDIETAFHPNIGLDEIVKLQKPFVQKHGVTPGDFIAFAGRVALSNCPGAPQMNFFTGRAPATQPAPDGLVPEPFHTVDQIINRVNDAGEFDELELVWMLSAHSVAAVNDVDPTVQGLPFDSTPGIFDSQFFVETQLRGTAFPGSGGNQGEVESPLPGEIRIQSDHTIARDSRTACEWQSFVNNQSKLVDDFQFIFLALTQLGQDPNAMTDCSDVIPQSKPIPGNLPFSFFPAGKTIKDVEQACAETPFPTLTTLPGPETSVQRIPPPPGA
The data set is described as follows: steady-state kinetics, absorbance loss at […] nm. In kind it is biochemical. The following applies: read-out: RB19; 1 mM H2O2, optimal pH (not given for RB19), 25 °C.

T1 sequence (O94753 31-361): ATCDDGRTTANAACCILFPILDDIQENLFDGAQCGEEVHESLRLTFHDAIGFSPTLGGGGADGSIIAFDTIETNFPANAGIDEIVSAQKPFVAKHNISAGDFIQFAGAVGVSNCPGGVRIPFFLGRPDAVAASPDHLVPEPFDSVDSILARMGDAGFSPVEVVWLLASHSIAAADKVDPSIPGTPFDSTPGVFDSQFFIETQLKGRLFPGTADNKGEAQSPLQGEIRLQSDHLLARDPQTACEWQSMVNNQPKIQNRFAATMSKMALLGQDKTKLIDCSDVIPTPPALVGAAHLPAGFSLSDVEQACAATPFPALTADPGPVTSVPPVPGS

In the case of `Nc1c(S(=O)(=O)O)cc(Nc2cccc(S(=O)(=O)CCOS(=O)(=O)O)c2)c2c1C(=O)c1ccccc1C2=O` [RB19], the Km was 33 ± 8 µM at PerVPL and 34 ± 13 µM on PchLiPA.
